The values that follow are results of earlier work, collected in US20070149611A1, “CB-DELTA8-THC COMPOSITION” (priority 2003, published 2007).

For data set [1] the following is noted: CBD alone.
For data set [2] the following is noted: more effective than Δ^9-THC; Abrahamov et al, 1995.
For data set [3] the following is noted: Δ^9-THC is easily oxidized to cannabinol.
For data set [4] the following is noted: relative to Δ^9-THC.

With `C=C(C)[C@@H]1CCC(C)=C[C@H]1c1c(O)cc(CCCCC)cc1O` [CBD, cannabidiol], the “effects when administered on its own” value in data set [1] is “no noticeable effects”.

For `CCCCCc1cc(O)c2c(c1)OC(C)(C)[C@@H]1CC=C(C)C[C@@H]21` [Δ^8-THC, Δ^8-tetrahydrocannabinol], the “anti-emetic effectiveness relative to Δ^9-THC” value in data set [2] is recorded as 200%. In data set [3], the “stability towards oxidation to cannabinol” value is listed as “very stable”. Also, in data set [4], the “psychometric potency, less potent than Δ^9-THC (generally considered)” value is 50% and the “psychometric potency, times less potent than Δ^9-THC (in some cases)” value is listed as 3-10 times.
